Data on nine compounds can be found in patent US9447135B2, “Semi-synthetic mithramycin derivatives with anti-cancer activity” (UNIVERSITY OF KENTUCKY RESEARCH FOUNDATION, priority 2012, dated 2016).

Assay [1] deals with U118 non-Ewing sarcoma cell line. Put plainly: 72 hour cytotoxicity, U118. It is filed as cell-based. The note with it: non-Ewing sarcoma cell line U118, 72 hour. How it is done: (§1) The cytotoxicity of a subgroup of the MTM SA analogues was tested against various Ewing sarcoma cell lines and non-Ewing sarcoma cell lines over a 72 hour period. Each analogue was checked individually with a range of concentrations to determine the IC50 of the molecule in actively growing cell cultures.

The subject of assay [2] is TC32 Ewing sarcoma cell line. The experiment in a line: 72 hour cytotoxicity, TC32. It counts as cell-based. The note with it: Ewing sarcoma cell line TC32, 72 hour; read-out: IC50 (nM) TC 32. How it is done:
as §1

For assay [3], the system named is ES-8 Ewing sarcoma cell line. The experiment in a line: 72 hour cytotoxicity, ES-8. The note with it: Ewing sarcoma cell line ES-8, 72 hour. It counts as cell-based. How it is done: as §1
In assay [4] the test system is ES-7 Ewing sarcoma cell line. The experiment in a line: 72 hour cytotoxicity, ES-7. It counts as cell-based. The note with it: Ewing sarcoma cell line ES-7, 72 hour. How it is done:
as §1

For assay [5], the system named is 5838 Ewing sarcoma cell line. Put plainly: 72 hour cytotoxicity, 5838. It counts as cell-based. The note with it: Ewing sarcoma cell line 5838, 72 hour. The procedure:
as §1

Assay [6] has as its system SK-ES-1 Ewing sarcoma cell line. Put plainly: 72 hour cytotoxicity, SK-ES-1. It counts as cell-based. The note with it: Ewing sarcoma cell line SK-ES-1, 72 hour. How it is done:
as §1

Assay [7] concerns A549, human non-small cell lung cancer cells. Put plainly: 72 hour cytotoxicity, A549 (resazurin). It counts as cell-based. The following applies: non-Ewing sarcoma cell line A549, 72 hour. How it is done: The cytotoxic effects of the side chain modifications of SA were investigated in order to determine whether the modification were beneficial to the drug structure. All cytotoxicity assays were performed with A549, human non-small cell lung cancer cells. A549 cells were cultured as specified from ATCC at 37° C., 5% CO2. The cells were added to a 96 well plate (5,000 cells/well) and permitted to attach for 24 h. After 24 h culture media were replaced with the side chain modified MTM SA derivative containing media at differing concentrations. The cells were incubated with the drug containing media for 72 hrs total (n=8). Cell viability was determined using a resazurin assay that signifies mitochondrial metabolic activity in living cells. […] of a 1 mM resazurin solution in PBS was added to the control and analogue-treated cells at the end of the treatment period. Cell viability was determined three hours later by reading the fluorescence at 560 nm (Ex)/590 nm (Em). The fluorescence signals were quantified using a Spectramax M5 plate reader (Molecular Devices) equipped with a SoftMaxPro software. Cytotoxicity was determined by calculating the half maximal inhibitory concentration (IC50) of each sample.
as §1

For assay [8], the system named is ES-4 Ewing sarcoma cell line. Put plainly: 72 hour cytotoxicity, ES-4. It is filed as cell-based. The following applies: Ewing sarcoma cell line ES-4, 72 hour. How it is done: as §1
The test system of assay [9] is ES-3 Ewing sarcoma cell line. The experiment in a line: 72 hour cytotoxicity, ES-3. The note with it: Ewing sarcoma cell line ES-3, 72 hour. It counts as cell-based. How it is done: as §1
The subject of assay [10] is TC71 Ewing sarcoma cell line. The experiment in a line: 72 hour cytotoxicity, TC71. It counts as cell-based. The following applies: Ewing sarcoma cell line TC71, 72 hour. The procedure:
as §1

Assay [11] relates to ES-2 Ewing sarcoma cell line. The experiment in a line: 72 hour cytotoxicity, ES-2. The following applies: Ewing sarcoma cell line ES-2, 72 hour. It is filed as cell-based. The procedure: as §1
The test system of assay [12] is VCaP non-Ewing sarcoma cell line. The experiment in a line: 72 hour cytotoxicity, VCaP. It counts as cell-based. How it is done:
as §1

Assay [13] concerns HCT-116 non-Ewing sarcoma cell line. Put plainly: 72 hour cytotoxicity, HCT-116. It counts as cell-based. The note with it: non-Ewing sarcoma cell line HCT-116, 72 hour. The procedure: as §1
Assay [14] can be described thus: 72 hour cytotoxicity, RH30. It is filed as cell-based. The note with it: Ewing sarcoma cell line RH30, 72 hour; read-out: IC50 (nM) RH 30. The procedure:
as §1

Assay [15] deals with A673 Ewing sarcoma cell line. The experiment in a line: 72 hour cytotoxicity, A673. It is filed as cell-based. The note with it: Ewing sarcoma cell line A673, 72 hour. How it is done:
as §1

Assay [16] concerns RDES Ewing sarcoma cell line. Put plainly: 72 hour cytotoxicity, RDES. It is filed as cell-based. How it is done: as §1
Assay [17] concerns Ewing sarcoma (TC32, 5838, SKES1) and non-Ewing (A459 (lung) and PC3 (prostate)) cancer cell lines. Put plainly: Selectivity assay, Ewing sarcoma versus non-Ewing cell panel (72 hr cytotoxicity).
Assay [18] has as its system several cancer cell lines. The following applies: cited from earlier work.

The IC50 is the midpoint of a concentration-inhibition curve. For the compound `COC(=O)[C@H](Cc1ccc(O)cc1)NC(=O)[C@@H](OC)[C@@H]1Cc2cc3cc(OC4CC(OC5CC(O)C(O)C(C)O5)C(O)C(C)O4)c(C)c(O)c3c(O)c2C(=O)[C@H]1OC1CC(OC2CC(OC3CC(C)(O)C(O)C(C)O3)C(O)C(C)O2)C(O)C(C)O1` (stereo partly drawn) [MTMSA-Tyr], the IC50 in assay [1] amounted to 231 nM; in assay [2], 133 nM; in [3], 171 nM; in assay [4], 189 nM; in [5] it was 170 nM; in assay [6] it was 306 nM. The IC50 in [7] was 867 nM; in [8] it was 138 nM; in [9] it was 266 nM; in assay [10], 130 nM; in assay [11] it was 263 nM.
Turning to `COC(=O)[C@H](Cc1ccccc1)NC(=O)[C@@H](OC)[C@@H]1Cc2cc3cc(O[C@H]4C[C@@H](O[C@H]5C[C@@H](O)[C@H](O)[C@@H](C)O5)[C@H](O)[C@@H](C)O4)c(C)c(O)c3c(O)c2C(=O)[C@H]1O[C@H]1C[C@@H](O[C@H]2C[C@@H](O[C@H]3C[C@](C)(O)[C@H](O)[C@@H](C)O3)[C@H](O)[C@@H](C)O2)[C@H](O)[C@@H](C)O1` [MTMSA-Phe], the IC50 in [12] turned out to be 32 nM; in assay [13] it was 21 nM; in assay [3], 59 nM; in assay [14], 136 nM; in [4], 61 nM; in assay [7], 398 nM. Also, the IC50 was found to be 35 nM in assay [8]; 363 nM in [9]; 109 nM in assay [15]; 94 nM in [16]; 182 nM in assay [11]. In addition, the “potency and selectivity in killing of Ewing sarcoma cells” value in [17] (compared with other MTM SA derivatives, FIG. 10) was “even more potent and highly selective in killing of Ewing sarcoma cells than other MTM SA derivatives”.
Regarding `CO[C@H](C(=O)NCCc1c[nH]c2ccccc12)[C@@H]1Cc2cc3cc(OC4CC(OC5CC(O)C(O)C(C)O5)C(O)C(C)O4)c(C)c(O)c3c(O)c2C(=O)[C@H]1OC1CC(OC2CC(OC3CC(C)(O)C(O)C(C)O3)C(O)C(C)O2)C(O)C(C)O1` (stereo partly drawn) [MTMSA-Tryptamine], the IC50 in assay [1] was determined as 76 nM; in assay [2], 110 nM; in assay [3], 97 nM; in assay [4], 86 nM; in [5], 439 nM; in assay [6], 226 nM. The IC50 was determined as 196 nM in assay [7]; 90 nM in [8]; 216 nM in assay [9]; 78 nM in assay [10]; 155 nM in [11].
`COC(=O)[C@@H](OC)[C@@H]1Cc2cc3cc(OC4CC(OC5CC(O)C(O)C(C)O5)C(O)C(C)O4)c(C)c(O)c3c(O)c2C(=O)[C@H]1OC1CC(OC2CC(OC3CC(C)(O)C(O)C(C)O3)C(O)C(C)O2)C(O)C(C)O1` (stereo partly drawn) [MTMSA-Me ester]: the IC50 in assay [1] was found to be 38 nM; in [2], 67 nM; in [3] it was 47 nM; in assay [4] it was 51 nM; in [5], 193 nM; in assay [6], 86 nM. Besides, the IC50 in assay [7] was found to be 99 nM; in [8], 41 nM; in assay [9] it was 90 nM; in assay [10], 46 nM; in assay [11] it was 76 nM.
On to `COc1ccc2[nH]cc(CCNC(=O)[C@@H](OC)[C@@H]3Cc4cc5cc(OC6CC(OC7CC(O)C(O)C(C)O7)C(O)C(C)O6)c(C)c(O)c5c(O)c4C(=O)[C@H]3OC3CC(OC4CC(OC5CC(C)(O)C(O)C(C)O5)C(O)C(C)O4)C(O)C(C)O3)c2c1` (stereo partly drawn) [MTMSA-5-OMe Trypamine], for which the IC50 was 58 nM in assay [1]; 73 nM in [2]; 75 nM in assay [3]; 79 nM in assay [4]; 78 nM in assay [5]; 63 nM in assay [6]. Besides, the IC50 turned out to be 84 nM in [7]; 63 nM in [8]; 157 nM in assay [9]; 58 nM in assay [10]; 84 nM in [11].
With `COC(C(=O)O)[C@@H]1Cc2cc3cc(OC4CC(OC5CC(O)C(O)C(C)O5)C(O)C(C)O4)c(C)c(O)c3c(O)c2C(=O)[C@H]1OC1CC(OC2CC(OC3CC(C)(O)C(O)C(C)O3)C(O)C(C)O2)C(O)C(C)O1` (stereo partly drawn) [MTM SA, mithramycin side chain carboxylic acid], in assay [18], the “activity compared to the parent MTM” value is recorded as “significantly decreased activity”.
Take `CO[C@H](C(=O)NCCc1c[nH]c2ccc(O)cc12)[C@@H]1Cc2cc3cc(OC4CC(OC5CC(O)C(O)C(C)O5)C(O)C(C)O4)c(C)c(O)c3c(O)c2C(=O)[C@H]1OC1CC(OC2CC(OC3CC(C)(O)C(O)C(C)O3)C(O)C(C)O2)C(O)C(C)O1` (stereo partly drawn) [MTMSA-Serotonin]: the IC50 was 916 nM in assay [1]; 667 nM in [2]; 676 nM in assay [3]; 753 nM in [4]; 690 nM in assay [5]; 612 nM in [6]. Also, the IC50 in assay [7] is over 3000 nM; in assay [8], 610 nM; in assay [9] it was 658 nM; in assay [10], 671 nM; in assay [11] it was 749 nM.
For `COC(=O)[C@H](C)NC(=O)[C@@H](OC)[C@@H]1Cc2cc3cc(OC4CC(OC5CC(O)C(O)C(C)O5)C(O)C(C)O4)c(C)c(O)c3c(O)c2C(=O)[C@H]1OC1CC(OC2CC(OC3CC(C)(O)C(O)C(C)O3)C(O)C(C)O2)C(O)C(C)O1` (stereo partly drawn) [MTM SA-Ala], the “selectivity against Ewing sarcoma cells relative to non-Ewing cells” value in [17] (FIG. 9, right panel) was determined as 9 fold. The “less potent than MTM” value in [17] (against Ewing sarcoma cells, relative to MTM) is on record as “about 200 fold”. For the same compound, the “higher selectivity than MTM against Ewing sarcoma relative to non-Ewing cell lines” value in [17] (relative to MTM, 72 hr) turned out to be 3 fold.
Regarding `CO[C@H](C(=O)C(C)=O)[C@@H]1Cc2cc3cc(OC4C[C@@H](OC5C[C@@H](O)[C@H](O)C(C)O5)[C@H](O)C(C)O4)c(C)c(O)c3c(O)c2C(=O)[C@H]1OC1C[C@@H](OC2C[C@@H](OC3C[C@](C)(O)[C@H](O)C(C)O3)[C@@H](O)C(C)O2)[C@H](O)C(C)O1` (stereo partly drawn) [MTM SDK], the “activity compared to the parent MTM” value in assay [18] is “increased activity”.
